Measurements as given in US20100260680A1, “NOVEL BONE MASS INCREASING AGENT” (ORIENTAL YEAST CO., LTD., priority 2007, published 2010).
“Also recorded” adds a separate entry of the source. Bridges are numbered along the chain shown (N, C = ends). Where no end group is shown, it is not given here.

What was measured:
[1] = test system: Human mesenchymal stem cells; assay: ALP staining of human mesenchymal stem cells; type: cell-based; conditions: Day 7 after differentiation; compared with the control group
Description: Peptide D was added at a concentration of 300 μM during differentiation. On Day 7, cells were fixed with a 10% neutral buffer formalin solution, followed by re-fixation with an acetone/ethanol solution.
A stain solution (500 μL) prepared with the composition described below was added to the cells, followed by incubation at 37° C. for 10 minutes, washing with water, and drying.
Naphthol AS-MX phosphate (SIGMA): 5 mg
Fast blue hemi-salt (SIGMA): 30 mg

MC3T3-E1 cells [2] = assay: Alizarin red S staining (calcification) of MC3T3-E1 cells; type: cell-based, mouse; conditions: 300 μM; Day 21; differentiation medium and maintenance medium
Description: On Day 21 after differentiation, the cells were washed with PBS, followed by fixation with a 10% neutral buffer formalin solution.
The cells were washed with water after removal of the fixative solution. A 1% alizarin red S stain solution (Nacalai) (150 μL) was added thereto. The plate was left at room temperature for 3 minutes. Thereafter, the stain solution was discarded, followed by washing with water and drying. Then, microscopic observation was carried out.
Cells mixed with 10% FBS+αMEM (GIBCO) were seeded on a 96-well plate (8×10^3 cells/well) and a 48-well plate (2×10^4 cells/well). The culture supernatant of each plate was replaced with 10% FBS+αMEM containing 5 mM β glycerophosphoric acid (SIGMA)+10 μg/mL sodium ascorbate (SIGMA) 48 hours later. Then, the medium was replaced with new medium every 3 or 4 days. As a control, MC3T3-E1 was cultured with the use of 10% FBS+αMEM as a maintenance medium. Upon medium replacement, a peptide was added to each plate at a concentration of 300 μM, ALP activity determination and alizarin red S staining were carried out by the method described in Example 1 on Days 7 and 21.

C2C12 cells = assay: ALP activity determination in C2C12 cells; type: cell-based, mouse; conditions: 6 days
C57BL/6CrjCrlj mice = assay: Bone morphology measurement with calcein labeling after peptide D administration; type: in vivo, mouse; conditions: region 5 mm away from the distal end of the femur
Description: In the experiment in Example 11 in which synthetic peptide D had been administered to mice, calcein (Nacalai) mixed with 2% hydrogen carbonate/ethanol aqueous solution was intraperitoneally administered in doses of 0.01 mL/g (weight) to individual mice of each group for calcein labeling on Days 1 and 4 after the initiation of administration of synthetic peptide D. A region located 5 mm away from the ethanol-fixed distal end of the femur collected from each mouse upon dissection was embedded in a methylmethacrylate (MMA) resin so that a non-decalcified specimen was prepared. […] As a result, in the group treated with peptide D, increases in calcification rate and osteogenesis rate were observed (FIGS. 25A and 25B).

GSK3β = assay: Western blotting of GSK3β phosphorylation in MC3T3-E1 cells; type: cell-based, mouse; conditions: 1 and 3 hours after the addition; 200 μM peptide D or 200 ng/ml BMP-2
Description: MC3T3-E1 cells mixed with 10% FBS+αMEM (SIGMA) were seeded on a 6-well plate (7.5×10^4 cells/well). […] The medium was removed at the respective time points shown in the relevant figures. PBS was added to the cells, and the cells were collected with a scraper (Falcon). A cell pellet was obtained via centrifugation at 1200 rpm for 5 min at 4° C. RIPA buffer (100 μL) was added to the collected pellet, for dissolution of the cellular membrane. Further, the resultant was centrifuged under conditions of 14500 rpm for 25 min at 4° C. The supernatant was collected as a cell extract. A portion of the cell extract was used for quantification of the protein concentration with the use of a BCA protein assay kit (PIERCE). For SDS-PAGE, a sample buffer in an amount that was ¼ that of the cell extract (Fermentas) was added thereto, followed by heating at 95° C. for 5 min. The prepared sample was applied in an amount of 7.5 or 10 μg to 10% polyacrylamide gel (BioRad), followed by electrophoresis at 170 V for 1 hour. After electrophoresis, the electrophoresed sample was transferred to a PVDF membrane (Millipore) at 80 mA for 40 min. The membrane was shaken in a blocking solution (Nacalai) at room temperature for 1 hour and then a primary antibody was added thereto, followed by shaking at room temperature for 1 hour at 4° C. for 12 hours. […]

[3] = test system: RANKL knock-down MC3T3-E1 cells; assay: ALP activity in RANKL knock-down MC3T3-E1 cells; type: cell-based, mouse; conditions: KD1 and KD2; 200 μM peptide D or 200 ng/ml BMP-2; 5 days
mouse osteoblasts = assay: Proliferative response of mouse osteoblasts (WST-1); type: cell-based; conditions: 100 μM peptide D (acetate) or 3 μg/mL antibody; with or without 5 ng/mL BMP-2; 72-hour culture
Description: Mouse osteoblasts mixed with 10% FBS+αMEM (SIGMA) were seeded on a 96-well plate (2×10^3 cells/well). After cell adhesion had taken place, the medium was removed therefrom. […] After 72-hour culture, WST-1 (Roche) was added thereto in an amount 1/10 that of each medium, followed by incubation at 37° C. for 3 hours. Then, the OD value (450 nm) for each well was determined with a microplate reader (BMG Labtech) (reference wavelength: 595 nm).

MC3T3-E1 cells [4] = assay: RT-PCR verification of gene expression in MC3T3-E1 cells; type: cell-based, mouse

“peptide D: cyclic peptide of SEQ ID NO: 7, 9 amino acids, two cysteine residues bound via a disulfide bond; binds to RANKL (YCWSQYLCY; disulfide 2-8 (inferred))” was tested, and the ALP staining [1] was “observed in a concentration-dependent manner”, the “alizarin red staining (calcification)” value (MC3T3-E1 cells [2]) was “strong degree of alizarin red staining” and the ALP activity (C2C12 cells; 50 μM peptide D alone) was “actions of ALP activity enhancement were not observed”. For the same substance, the “increase in the ALP activity relative to BMP-2 alone” value (C2C12 cells; 50 μM peptide D combined with 100 ng/mL BMP-2) was “at least 5 times”, the calcification rate (C57BL/6CrjCrlj mice) was “increases” and the “osteogenesis rate (bone formation rate)” value (C57BL/6CrjCrlj mice) was “increases”. The “phosphorylation of GSK3β” value (GSK3β) was “confirmed to be induced”, the “ALP activity enhancement under RANKL knockdown” value [3] was “significantly reduced” and the “mouse osteoblast proliferation (WST-1)” value (mouse osteoblasts) was “promoted mouse osteoblast proliferation; also recorded: weak effects”. For the same substance, the “gene expression levels of IRS1, PDGFRβ, PDGFc, FGFR2, FGF2, CTGF, BMP-4 and IGF-2 (RT-PCR)” value (MC3T3-E1 cells [4]; 200 μM peptide D (acetate)) was “significant increases in the gene expression levels” and the “gene expression levels of ALP, Col1 and OC (RT-PCR)” value (MC3T3-E1 cells [4]; 200 μM peptide D (acetate) or 150 ng/ml BMP-2) was “significant increases in the gene expression levels”.
